For one assay, the target named is T1, human GLP-1R (Homo sapiens, UniProt P43220).
T1 construct: expressed in transfected cells; host or cells: PEAK RAPID-derived Gα15-trans48 LD stably expressing cells (PRG48), transiently transfected with Lipofectamine 2000
The assay is described as follows: GLP-1 receptor in vitro calcium assay (intracellular free calcium concentration change induced via GLP-1 receptor). It is filed as cell-based. Particulars: for EC50: PRG48 cells transfected with human GLP-1R, compound added with 250 pM GLP-1, Ca2+ response ΔF/F, read-out: Ca EC50 value; for GLP-1 receptor action enhancing activity (vs BETP): intensity compared to BETP, activity of BETP as 1. A digest of the protocol:
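PRG48 cells transiently transfected with human GLP-1R and loaded with calcium dye in HEPES buffer containing probenecid. Compound added together with 250 pM GLP-1; fluorescence (Ex480/Em540) recorded before and after addition. ΔF/F computed and EC50 fitted from it.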

The test system of assay [1] is KKAy mice. Briefly: Blood glucose increase suppressive effect in diabetes model mouse after whey protein and glucose load. The format is in vivo. The note with it: male KKAy mice, 3 mg/kg intraperitoneal. The method, then:
23-week-old male KKAy mice fasted overnight were randomly divided into 2 groups, and whey protein was orally administered to each mouse at 3 g/kg to induce endogenous GLP-1 secretion. At 30 min after whey protein administration, the compound of the present invention (compound 50) or administration medium (vehicle) was intraperitoneally administered to each mouse at 3 mg/kg, glucose was orally administered immediately thereafter at 2 g/kg, blood samples were collected from the tail vein over time, and the blood glucose level was measured.

The subject of assay [2] is isolated rat islets of Langerhans. The assay is described as follows: Glucose-stimulated insulin secretion in isolated rat islets of Langerhans. The format is cell-based. The method, then:
The islets of Langerhans were isolated from the pancreas of male Wistar rats at around 10 weeks of age, according to a conventional method and using collagenase and Ficoll-Conray solution (Cryobiology, 2006, 52:90-8), and used for the activity evaluation of the compound.
The isolated islets were precultured in glucose-free Krebs Ringer Bicarbonate-Hepes buffer (KRBH: 129 mM NaCl, 4.7 mM KCl, 5.0 mM NaHCO3, 1.2 mM MgSO4, […], 2.5 mM CaCl2, 10 mM HEPES, pH 7.4) under the conditions of 37° C., 5% CO2 for 30 min and seeded in each well of a 24 well plate by 5 islets. […] The culture supernatant was recovered from each well after culturing for 1 hr, and the concentration of insulin secreted in the supernatant was measured using a commercially available measurement kit (manufactured by Morinaga Institute of Biological Science, Inc.). The insulin secretion amounts under respective stimulation conditions were calculated as secretion amounts relative to the secretion amount at 8.3 mM glucose.

Assay [3] deals with KKAy mice. The assay is described as follows: Food intake-suppressive effect in diabetes model mouse. It is filed as in vivo. The note with it: male KKAy mice fasted overnight, 3 mg/kg oral in simulated intestinal fluid, 4 hr after administration, vs simulated intestinal fluid group (FIG. 3). The method, then:
11-week-old male KKAy mice were randomly divided into 2 groups. After fasting overnight, simulated intestinal fluid (containing 10 mM taurocholic acid, 2 mM lecithin, 55 mM maleic acid, 81.6 mM sodium hydroxide, 125 mM sodium chloride), or the compound of the present invention (compound 96) dissolved in the simulated intestinal fluid was orally administered (3 mg/kg), a commercially available feed (CRF-1, manufactured by Oriental Yeast Co., ltd.) was given and changes in the food intake was monitored.

Results on 14 compounds are retold here after patent publication US20190022039A1, “COMPOUND HAVING ENHANCING ACTIVITY FOR GLUCAGON-LIKE PEPTIDE-1 RECEPTOR ACTIONS” (AJINOMOTO CO., INC., priority 2016, published 2019).

Structures are written as SMILES.

T1 sequence (P43220 24-463): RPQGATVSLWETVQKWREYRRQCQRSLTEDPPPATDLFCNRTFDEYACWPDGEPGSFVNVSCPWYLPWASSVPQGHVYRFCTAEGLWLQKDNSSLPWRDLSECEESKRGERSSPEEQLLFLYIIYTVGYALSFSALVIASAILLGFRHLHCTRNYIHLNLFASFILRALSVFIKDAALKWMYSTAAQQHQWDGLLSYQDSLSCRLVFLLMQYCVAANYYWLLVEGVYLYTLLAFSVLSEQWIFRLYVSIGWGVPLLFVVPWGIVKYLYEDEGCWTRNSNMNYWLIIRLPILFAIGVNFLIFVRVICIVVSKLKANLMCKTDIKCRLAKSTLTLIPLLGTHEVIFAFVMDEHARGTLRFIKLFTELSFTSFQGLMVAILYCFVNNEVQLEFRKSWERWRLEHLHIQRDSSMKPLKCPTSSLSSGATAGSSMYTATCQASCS

`CCCCC(CC)CNC(=O)[C@H](CC1CCCCC1)NC(=O)Nc1ccc(NS(=O)(=O)c2ccc(C(C)(C)C)cc2)cc1` (some centres unmarked) [Compound 50]: at human GLP-1R, the EC50 (commonly the midpoint of the concentration-response curve) came out at 6.8 nM and the “GLP-1 receptor action enhancing activity (vs BETP)” value is on record as 3720. Also, in the assay on KKAy mice [1] (30 min after whey protein 3 g/kg, glucose 2 g/kg oral, peak 30 min after glucose (FIG. 2A)), the “blood glucose at the time of peak” value is “suppression of blood glucose increase at the time of peak”. Besides, the “blood glucose AUC value” in the assay on KKAy mice [1] (180 min after glucose administration, p<0.05 vs vehicle (FIG. 2B)) came out at 734.3 ± 65.9 mg·h/dL. In addition, the insulin secretion entry in assay [2] (30 μM compound 50 alone in buffer containing 8.3 mM glucose, 1 hr) is given as “did not affect insulin secretion”. Moreover, the “increase in insulin secretion amount as compared to 8.3 mM glucose alone” value in assay [2] (simultaneous addition of 30 μM compound 50 and 1 nM exendin-4, 8.3 mM glucose, 1 hr (FIG. 1)) is “about 2 fold”.

As to `CCCCCCNC(=O)[C@@H](Cc1cccnc1)NC(=O)Nc1ccc(NS(=O)(=O)c2ccc(C(C)(C)C)cc2)cc1` [Compound 96], on human GLP-1R, the EC50 worked out at 600 nM and the “GLP-1 receptor action enhancing activity (vs BETP)” value is on record as 42. For the same compound, the cumulative food consumption entry in the assay with KKAy mice [3] is “significant suppression”.

Regarding `CC(C)c1ccc(S(=O)(=O)Nc2ccc(NC(=O)N[C@@H](Cc3ccccc3)C(=O)OC(C)(C)C)cc2)cc1` [Compound 72], on human GLP-1R, the EC50 turned out to be 680 nM and the “GLP-1 receptor action enhancing activity (vs BETP)” value worked out at 37.

Take `CC(C)CCCC(C)NC(=O)[C@@H](Cc1cccnc1)NC(=O)Nc1cccc(NS(=O)(=O)c2ccc(C(C)(C)C)cc2)c1` (some centres unmarked) [Compound 103]: on human GLP-1R, the EC50 was found to be 130 nM and the “GLP-1 receptor action enhancing activity (vs BETP)” value worked out at 195.

Consider `Cc1ccc(S(=O)(=O)Nc2ccc(NC(=O)N[C@H](Cc3c[nH]c4ccccc34)C(=O)NCCC3CCCCC3)cc2)cc1` [Compound 47], for which, on human GLP-1R, the EC50 came to 120 nM and the “GLP-1 receptor action enhancing activity (vs BETP)” value was found to be 208.

In the case of `Cc1ccc(S(=O)(=O)Nc2ccc(NC(=O)N[C@H](Cc3ccccc3)C(=O)N[C@@H](C)c3ccccc3)cc2)cc1` [Compound 31], on human GLP-1R, the concentration giving a half-maximal response (EC50) was 480 nM and the “GLP-1 receptor action enhancing activity (vs BETP)” value was 52.

Consider `CC(C)CCCC(C)NC(=O)[C@@H](Cc1cccnc1)NC(=O)Nc1ccc(NS(=O)(=O)c2ccc(C(C)(C)C)cc2)cc1` (some centres unmarked) [Compound 102], for which, on human GLP-1R, the 50% effective concentration (EC50) turned out to be 130 nM and the “GLP-1 receptor action enhancing activity (vs BETP)” value amounted to 193.

In the case of `CCC(CC)CNC(=O)[C@@H](Cc1ccccc1)NC(=O)Nc1ccc(NS(=O)(=O)c2ccc(C)cc2)cc1` [Compound 10], at human GLP-1R, the EC50 was found to be 380 nM and the “GLP-1 receptor action enhancing activity (vs BETP)” value was 67.

`CCCCC(CC)CNC(=O)[C@H](Cc1c[nH]c2ccccc12)NC(=O)Nc1ccc(NS(=O)(=O)c2ccc(C(C)(C)C)cc2)cc1` (some centres unmarked) [Compound 49]: on human GLP-1R, the 50% effective concentration (EC50) amounted to 10 nM and the “GLP-1 receptor action enhancing activity (vs BETP)” value is 2534.

In the case of `CCCCC(CC)CNC(=O)[C@@H](Cc1ccc(Cl)cc1)NC(=O)Nc1ccc(NS(=O)(=O)c2ccc(C)cc2)cc1` (some centres unmarked) [Compound 39], at human GLP-1R, the EC50 was 23 nM.

Regarding `CCCCC(CC)CNC(=O)[C@@H](CC1CCCCC1)NC(=O)Nc1ccc(N2CCOCC2)c(NS(=O)(=O)c2ccc(C(C)(C)C)cc2)c1` (stereo partly drawn) [Compound 100, (2R)-2-({3-[(4-tert-butylphenyl)sulfonylamino]-4-morpholino-phenyl}carbamoylamino)-3-cyclohexyl-N-(2-ethylhexyl)propanamide], at human GLP-1R, the EC50 was 50 nM and the “GLP-1 receptor action enhancing activity (vs BETP)” value is reported as 503.

In the case of `CCCCCCNC(=O)[C@@H](CC(C)C)NC(=O)Nc1ccc(NS(=O)(=O)c2ccc(C)cc2)cc1` [Compound 11], at human GLP-1R, the 50% effective concentration (EC50) was determined as 490 nM and the “GLP-1 receptor action enhancing activity (vs BETP)” value was 52.

As to `CCCCCCNC(=O)[C@@H](Cc1c[nH]c2ccccc12)NC(=O)Nc1cccc(NS(=O)(=O)c2ccc(C(C)(C)C)cc2)c1` [Compound 95], at human GLP-1R, the half-maximal effective concentration (EC50) turned out to be 250 nM and the “GLP-1 receptor action enhancing activity (vs BETP)” value was 101.

With `Cc1ccc(S(=O)(=O)Nc2ccc(NC(=O)N[C@H](CC(C)C)C(=O)NCC3CCCCC3)cc2)cc1` [Compound 29], on human GLP-1R, the concentration for a half-maximal effect (EC50) worked out at 940 nM and the “GLP-1 receptor action enhancing activity (vs BETP)” value is given as 27.
